According to patent EP4745137A1 (Gluetacs Therapeutics (Shanghai) Co., Ltd., priority 2023, dated 2025):

Assays:
[1] = molecular target: T1, WEE1 (Homo sapiens, UniProt P30291+Q96SW2); assay: Western-blot assay of substrate protein degradation in hPBMCs, WEE1; assay type: cell-based; conditions: 24 hours of compound treatment, 50 nM and 500 nM tested (concentration behind the class not stated)
T1 construct: endogenous in cells; host or cells: hPBMCs (Milecell Biotechnologies)

[2] = molecular target: T2, IKZF1 (Homo sapiens, UniProt Q13422+Q96SW2); assay: Western-blot assay of substrate protein degradation in hPBMCs, IKZF1; assay type: cell-based; conditions: 24 hours of compound treatment, 50 nM and 500 nM tested (concentration behind the class not stated)
T2 construct: endogenous in cells; host or cells: hPBMCs (Milecell Biotechnologies)
T2 sequence (Q13422 whole entry): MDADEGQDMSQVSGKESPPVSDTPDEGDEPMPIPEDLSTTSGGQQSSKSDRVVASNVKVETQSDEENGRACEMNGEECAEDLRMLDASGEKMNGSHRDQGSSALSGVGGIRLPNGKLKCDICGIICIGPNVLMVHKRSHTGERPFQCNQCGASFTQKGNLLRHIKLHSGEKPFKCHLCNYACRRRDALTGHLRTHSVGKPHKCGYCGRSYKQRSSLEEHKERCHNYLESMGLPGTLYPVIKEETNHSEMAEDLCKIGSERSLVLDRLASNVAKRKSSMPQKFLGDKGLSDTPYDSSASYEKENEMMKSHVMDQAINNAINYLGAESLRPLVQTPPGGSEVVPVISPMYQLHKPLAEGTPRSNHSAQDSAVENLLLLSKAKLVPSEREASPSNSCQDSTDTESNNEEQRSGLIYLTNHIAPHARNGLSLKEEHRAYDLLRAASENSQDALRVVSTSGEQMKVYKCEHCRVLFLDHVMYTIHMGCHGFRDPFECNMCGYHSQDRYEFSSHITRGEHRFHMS
T2 sequence (Q96SW2 whole entry): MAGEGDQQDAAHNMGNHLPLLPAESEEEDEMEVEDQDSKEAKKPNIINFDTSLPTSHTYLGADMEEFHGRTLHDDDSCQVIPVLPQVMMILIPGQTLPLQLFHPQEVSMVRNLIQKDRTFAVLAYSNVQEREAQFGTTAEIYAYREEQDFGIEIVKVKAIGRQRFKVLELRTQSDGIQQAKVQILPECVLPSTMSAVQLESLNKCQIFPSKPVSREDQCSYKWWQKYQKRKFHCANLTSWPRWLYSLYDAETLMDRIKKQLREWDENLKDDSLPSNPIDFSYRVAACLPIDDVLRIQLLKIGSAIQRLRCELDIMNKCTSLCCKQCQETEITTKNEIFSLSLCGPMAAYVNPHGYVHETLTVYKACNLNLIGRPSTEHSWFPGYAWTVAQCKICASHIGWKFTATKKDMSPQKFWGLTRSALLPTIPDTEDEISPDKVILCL
T2 sequence (Q16531 whole entry partner): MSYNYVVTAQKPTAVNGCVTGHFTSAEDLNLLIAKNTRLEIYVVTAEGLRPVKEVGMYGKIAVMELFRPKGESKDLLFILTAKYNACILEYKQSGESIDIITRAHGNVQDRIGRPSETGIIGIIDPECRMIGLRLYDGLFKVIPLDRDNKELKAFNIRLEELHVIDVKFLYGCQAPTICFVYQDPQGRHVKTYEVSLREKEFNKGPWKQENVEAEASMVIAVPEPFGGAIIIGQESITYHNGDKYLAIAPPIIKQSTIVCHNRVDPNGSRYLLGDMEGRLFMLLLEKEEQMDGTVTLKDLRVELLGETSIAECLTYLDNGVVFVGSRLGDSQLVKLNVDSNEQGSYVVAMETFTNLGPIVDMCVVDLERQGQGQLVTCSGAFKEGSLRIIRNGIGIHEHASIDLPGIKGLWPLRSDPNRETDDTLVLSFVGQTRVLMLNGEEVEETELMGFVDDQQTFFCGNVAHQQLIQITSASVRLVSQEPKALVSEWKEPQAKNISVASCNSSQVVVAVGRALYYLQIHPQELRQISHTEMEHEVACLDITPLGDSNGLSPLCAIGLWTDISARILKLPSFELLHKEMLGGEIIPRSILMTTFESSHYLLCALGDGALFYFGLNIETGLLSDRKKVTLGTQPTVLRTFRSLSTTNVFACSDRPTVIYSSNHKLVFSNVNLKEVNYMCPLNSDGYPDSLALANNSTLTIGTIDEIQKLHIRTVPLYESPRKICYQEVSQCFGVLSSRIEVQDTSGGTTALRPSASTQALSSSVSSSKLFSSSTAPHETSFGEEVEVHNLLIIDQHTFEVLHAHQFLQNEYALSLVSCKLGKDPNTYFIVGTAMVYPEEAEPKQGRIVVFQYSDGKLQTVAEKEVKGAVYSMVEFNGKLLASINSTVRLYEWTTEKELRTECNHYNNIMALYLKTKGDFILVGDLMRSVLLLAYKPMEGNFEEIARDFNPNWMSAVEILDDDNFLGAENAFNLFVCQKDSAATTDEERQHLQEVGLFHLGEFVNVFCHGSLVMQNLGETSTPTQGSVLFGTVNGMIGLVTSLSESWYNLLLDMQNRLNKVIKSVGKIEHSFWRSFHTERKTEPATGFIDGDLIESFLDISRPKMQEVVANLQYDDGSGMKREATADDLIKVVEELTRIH

[3] = molecular target: T3, IKZF2 (Homo sapiens, UniProt Q96SW2+Q9UKS7); assay: Western-blot assay of substrate protein degradation in hPBMCs, IKZF2; assay type: cell-based; conditions: 24 hours of compound treatment, 50 nM and 500 nM tested (concentration behind the class not stated)
T3 construct: endogenous in cells; host or cells: hPBMCs (Milecell Biotechnologies)
T3 sequence (Q9UKS7 whole entry): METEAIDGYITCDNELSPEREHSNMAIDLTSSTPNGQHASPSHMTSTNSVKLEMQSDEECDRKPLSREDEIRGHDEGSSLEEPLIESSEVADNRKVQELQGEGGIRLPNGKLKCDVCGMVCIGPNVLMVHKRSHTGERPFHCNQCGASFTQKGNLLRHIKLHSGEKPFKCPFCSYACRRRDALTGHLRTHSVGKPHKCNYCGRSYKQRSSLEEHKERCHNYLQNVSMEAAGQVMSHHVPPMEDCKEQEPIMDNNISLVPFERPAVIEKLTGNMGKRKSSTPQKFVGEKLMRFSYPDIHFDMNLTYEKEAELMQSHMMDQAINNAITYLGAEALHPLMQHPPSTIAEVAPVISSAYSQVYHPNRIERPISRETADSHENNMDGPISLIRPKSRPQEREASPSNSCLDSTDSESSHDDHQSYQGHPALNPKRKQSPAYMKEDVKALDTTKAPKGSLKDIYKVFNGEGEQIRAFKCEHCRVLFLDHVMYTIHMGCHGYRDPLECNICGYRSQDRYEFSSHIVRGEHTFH
T3 sequence (Q96SW2 whole entry): as the sequence (Q96SW2 whole entry) above
T3 sequence (Q16531 whole entry partner): as the sequence (Q16531 whole entry partner) above

[4] = molecular target: T4, IKZF3 (Homo sapiens, UniProt Q96SW2+Q9UKT9); assay: Western-blot assay of substrate protein degradation in hPBMCs, IKZF3; assay type: cell-based; conditions: 24 hours of compound treatment, 50 nM and 500 nM tested (concentration behind the class not stated)
T4 construct: endogenous in cells; host or cells: hPBMCs (Milecell Biotechnologies)
T4 sequence (Q9UKT9 whole entry): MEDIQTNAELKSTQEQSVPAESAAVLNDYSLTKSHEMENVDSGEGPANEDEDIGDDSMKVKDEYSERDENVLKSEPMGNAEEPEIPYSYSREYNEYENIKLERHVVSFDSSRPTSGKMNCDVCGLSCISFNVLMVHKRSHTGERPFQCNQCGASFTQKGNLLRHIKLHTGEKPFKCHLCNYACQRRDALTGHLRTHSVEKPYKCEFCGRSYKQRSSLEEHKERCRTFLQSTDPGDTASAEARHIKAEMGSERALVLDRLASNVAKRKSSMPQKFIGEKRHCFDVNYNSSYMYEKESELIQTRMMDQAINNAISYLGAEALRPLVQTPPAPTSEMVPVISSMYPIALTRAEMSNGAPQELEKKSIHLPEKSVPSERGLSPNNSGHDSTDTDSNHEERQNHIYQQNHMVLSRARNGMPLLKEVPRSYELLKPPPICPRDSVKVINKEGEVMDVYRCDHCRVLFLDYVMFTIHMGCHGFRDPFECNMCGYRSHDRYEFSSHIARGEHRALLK
T4 sequence (Q96SW2 whole entry): as the sequence (Q96SW2 whole entry) above
T4 sequence (Q16531 whole entry partner): as the sequence (Q16531 whole entry partner) above

[5] = molecular target: T5, CK1α (Homo sapiens, UniProt P48729+Q96SW2); assay: Western-blot assay of substrate protein degradation in hPBMCs, CK1α; assay type: cell-based; conditions: 24 hours of compound treatment, 50 nM and 500 nM tested (concentration behind the class not stated)
T5 construct: endogenous in cells; host or cells: hPBMCs (Milecell Biotechnologies)
T5 sequence (P48729 whole entry): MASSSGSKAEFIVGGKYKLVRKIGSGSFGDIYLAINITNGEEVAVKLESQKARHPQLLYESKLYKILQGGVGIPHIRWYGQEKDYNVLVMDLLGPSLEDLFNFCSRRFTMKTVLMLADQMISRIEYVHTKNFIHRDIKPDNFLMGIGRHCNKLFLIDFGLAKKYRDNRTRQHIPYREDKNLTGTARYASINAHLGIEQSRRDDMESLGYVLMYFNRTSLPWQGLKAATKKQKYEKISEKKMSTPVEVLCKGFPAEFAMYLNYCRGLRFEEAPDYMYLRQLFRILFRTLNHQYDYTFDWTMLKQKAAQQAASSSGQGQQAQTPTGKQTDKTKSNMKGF
T5 sequence (Q96SW2 whole entry): as the sequence (Q96SW2 whole entry) above
T5 sequence (Q16531 whole entry partner): as the sequence (Q16531 whole entry partner) above

[6] = molecular target: T6, GSPT1 (Homo sapiens, UniProt P15170+Q96SW2); assay: Western-blot assay of substrate protein degradation in hPBMCs, GSPT1; assay type: cell-based; conditions: 24 hours of compound treatment, 50 nM and 500 nM tested (concentration behind the class not stated)
T6 construct: endogenous in cells; host or cells: hPBMCs (Milecell Biotechnologies)

[7] = molecular target: T7, human Cereblon WT GST-tagged protein (Homo sapiens, UniProt Q96SW2); assay: CRBN-binding affinity by HTRF (CEREBLON BINDING kit); conditions: HTRF inhibitory activity, CEREBLON BINDING kit; read-out: HTRF IC50
T7 construct: purchased CISBIO 64BDCRBNPEH
T7 sequence (Q96SW2 whole entry): as the sequence (Q96SW2 whole entry) above

T1 sequence (P30291 whole entry): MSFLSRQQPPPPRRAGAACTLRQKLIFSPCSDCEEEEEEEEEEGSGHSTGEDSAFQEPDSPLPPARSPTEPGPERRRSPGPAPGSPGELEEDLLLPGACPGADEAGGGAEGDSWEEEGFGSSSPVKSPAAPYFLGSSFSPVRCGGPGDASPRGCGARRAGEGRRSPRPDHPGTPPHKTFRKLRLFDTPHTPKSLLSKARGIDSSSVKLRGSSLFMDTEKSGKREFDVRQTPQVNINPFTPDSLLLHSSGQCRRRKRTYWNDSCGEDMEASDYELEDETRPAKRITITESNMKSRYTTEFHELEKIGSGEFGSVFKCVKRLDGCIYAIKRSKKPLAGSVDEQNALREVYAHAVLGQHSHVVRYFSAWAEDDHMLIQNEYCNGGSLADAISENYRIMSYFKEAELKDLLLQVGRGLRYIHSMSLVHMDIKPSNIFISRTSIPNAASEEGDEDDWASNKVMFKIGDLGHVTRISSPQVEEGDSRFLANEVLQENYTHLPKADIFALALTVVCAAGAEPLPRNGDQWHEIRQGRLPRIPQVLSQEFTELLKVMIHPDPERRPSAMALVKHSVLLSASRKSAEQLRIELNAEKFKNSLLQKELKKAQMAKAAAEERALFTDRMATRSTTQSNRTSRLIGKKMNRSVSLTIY
T1 sequence (Q96SW2 whole entry): as the sequence (Q96SW2 whole entry) above
T1 sequence (Q16531 whole entry partner): as the sequence (Q16531 whole entry partner) above

SMILES	Weel substrate protein remaining % [1]	IKZF 1 substrate protein remaining % [2]	IKZF2 substrate protein remaining % [3]	IKZF3 substrate protein remaining % [4]	CK1a substrate protein remaining % [5]	GSPT1 substrate protein remaining % [6]	IC50 [7]
O=C1CCC(N2C(=O)c3ccc(CN4CCN(c5ncnc6sc(Br)cc56)CC4)cc3C2=O)C(=O)N1 (stereo not drawn) [GT-06309, 5-((4-(6-bromothieno[2,3-d]pyrimidin-4-yl)piperazin-1-yl)methyl)-2-(2,6-dioxopiperidin-3-yl)isoindoline-1,3-dione]	B (80%< substrate protein remaining %≤ 100%)	A (0% ≤ substrate protein remaining % ≤ 80%)	A (0% ≤ substrate protein remaining % ≤ 80%)	A (0% ≤ substrate protein remaining % ≤ 80%)	B (80%< substrate protein remaining %≤ 100%)	B (80%< substrate protein remaining %≤ 100%)	1500 to 1900 nM
Cc1nc(N2CCN(Cc3ccc4c(c3)C(=O)N(C3CCC(=O)NC3=O)C4=O)CC2)c2c3c(sc2n1)CCCC3 (stereo not drawn) [GT-06348, 2-(2,6-dioxopiperidin-3-yl)-5-((4-(2-methyl-5,6,7,8-tetrahydrobenzo[4,5]thieno[2,3-d]pyrimidin-4-yl)piperazin-1-yl)methyl)isoindoline-1,3-dione]	A (0% ≤ substrate protein remaining % ≤ 80%)	A (0% ≤ substrate protein remaining % ≤ 80%)	A (0% ≤ substrate protein remaining % ≤ 80%)	A (0% ≤ substrate protein remaining % ≤ 80%)	A (0% ≤ substrate protein remaining % ≤ 80%)	A (0% ≤ substrate protein remaining % ≤ 80%)	1000 to 1500 nM
O=C1CCC(N2C(=O)c3ccc(CN4CCN(c5ncnc6sc7c(c56)CCCC7)CC4)cc3C2=O)C(=O)N1 (stereo not drawn) [GT-06564, 2-(2,6-dioxopiperidin-3-yl)-5-((4-(5,6,7,8-tetrahydrobenzo[4,5]thieno[2,3-d]pyrimidin-4-yl)piperazin-1-yl)methyl)isoindoline-1,3-dione]	A (0% ≤ substrate protein remaining % ≤ 80%)	A (0% ≤ substrate protein remaining % ≤ 80%)	A (0% ≤ substrate protein remaining % ≤ 80%)	A (0% ≤ substrate protein remaining % ≤ 80%)	A (0% ≤ substrate protein remaining % ≤ 80%)	A (0% ≤ substrate protein remaining % ≤ 80%)	500 to 1000 nM
O=C1CCC(N2C(=O)c3ccc(CN4CCN(c5ncnc6sc7c(c56)CCC7)CC4)cc3C2=O)C(=O)N1 (stereo not drawn) [GT-06565, 5-((4-(6,7-dihydro-5H-cyclopenta[4,5]thieno[2,3-d]pyrimidin-4-yl)piperazin-1-yl)methyl)-2-(2,6-dioxopiperidin-3-yl)isoindoline-1,3-dione]	A (0% ≤ substrate protein remaining % ≤ 80%)	A (0% ≤ substrate protein remaining % ≤ 80%)	A (0% ≤ substrate protein remaining % ≤ 80%)	A (0% ≤ substrate protein remaining % ≤ 80%)	A (0% ≤ substrate protein remaining % ≤ 80%)	A (0% ≤ substrate protein remaining % ≤ 80%)	1000 to 1500 nM
Cc1nc(N2CCN(Cc3ccc4c(c3)C(=O)N(C3CCC(=O)NC3=O)C4=O)CC2)c2c3c(sc2n1)CCC3 (stereo not drawn) [GT-06566, 2-(2,6-dioxopiperidin-3-yl)-5-((4-(2-methyl-6,7-dihydro-5H-cyclopenta[4,5]thieno[2,3-d]pyrimidin-4-yl)piperazin-1-yl)methyl)isoindoline-1,3-dione]	A (0% ≤ substrate protein remaining % ≤ 80%)	A (0% ≤ substrate protein remaining % ≤ 80%)	A (0% ≤ substrate protein remaining % ≤ 80%)	A (0% ≤ substrate protein remaining % ≤ 80%)	A (0% ≤ substrate protein remaining % ≤ 80%)	A (0% ≤ substrate protein remaining % ≤ 80%)	500 to 1000 nM
O=C1CCC(N2C(=O)c3ccc(CN4CCN(c5ncc6ccsc6n5)CC4)cc3C2=O)C(=O)N1 (stereo not drawn) [GT-06567, 2-(2,6-dioxopiperidin-3-yl)-5-((4-(thieno[2,3-d]pyrimidin-2-yl)piperazin-1-yl)methyl)isoindoline-1,3-dione]	A (0% ≤ substrate protein remaining % ≤ 80%)	B (80%< substrate protein remaining %≤ 100%)	B (80%< substrate protein remaining %≤ 100%)	B (80%< substrate protein remaining %≤ 100%)	A (0% ≤ substrate protein remaining % ≤ 80%)	A (0% ≤ substrate protein remaining % ≤ 80%)	1000 to 1500 nM
Cc1sc2ncnc(C3CCN(Cc4ccc5c(c4)C(=O)N(C4CCC(=O)NC4=O)C5=O)CC3)c2c1C (stereo not drawn) [GT-06593, 5-((4-(5,6-dimethylthieno[2,3-d]pyrimidin-4-yl)piperidin-1-yl)methyl)-2-(2,6-dioxopiperidin-3-yl)isoindoline-1,3-dione]	A (0% ≤ substrate protein remaining % ≤ 80%)	A (0% ≤ substrate protein remaining % ≤ 80%)	A (0% ≤ substrate protein remaining % ≤ 80%)	A (0% ≤ substrate protein remaining % ≤ 80%)	B (80%< substrate protein remaining %≤ 100%)	A (0% ≤ substrate protein remaining % ≤ 80%)	1500 to 1900 nM
O=C1CCC(N2C(=O)c3ccc(CN4CC=C(c5c[nH]c6cc(F)ccc56)CC4)cc3C2=O)C(=O)N1 (stereo not drawn) [GT-06634, 2-(2,6-dioxopiperidin-3-yl)-5-((4-(6-fluoro-1H-indol-3-yl)-3,6-dihydropyridin-1(2H)-yl)methyl)isoindoline-1,3-dione]	A (0% ≤ substrate protein remaining % ≤ 80%)	B (80%< substrate protein remaining %≤ 100%)	A (0% ≤ substrate protein remaining % ≤ 80%)	A (0% ≤ substrate protein remaining % ≤ 80%)	A (0% ≤ substrate protein remaining % ≤ 80%)	A (0% ≤ substrate protein remaining % ≤ 80%)	500 to 1000 nM
Cc1nc(C2CCN(Cc3ccc4c(c3)C(=O)N(C3CCC(=O)NC3=O)C4=O)CC2)c2c(-c3ccccc3)csc2n1 (stereo not drawn) [GT-06646, 2-(2,6-dioxopiperidin-3-yl)-5-((4-(2-methyl-5-phenylthieno[2,3-d]pyrimidin-4-yl)piperidin-1-yl)methyl)isoindoline-1,3-dione]	B (80%< substrate protein remaining %≤ 100%)	B (80%< substrate protein remaining %≤ 100%)	B (80%< substrate protein remaining %≤ 100%)	B (80%< substrate protein remaining %≤ 100%)	B (80%< substrate protein remaining %≤ 100%)	A (0% ≤ substrate protein remaining % ≤ 80%)	500 to 1000 nM
O=C1CCC(N2C(=O)c3ccc(CN4CCC(c5ncnc6sc7c(c56)CCCC7)CC4)cc3C2=O)C(=O)N1 (stereo not drawn) [GT-06649, 2-(2,6-dioxopiperidin-3-yl)-5-((4-(5,6,7,8-tetrahydrobenzo[4,5]thieno[2,3-d]pyrimidin-4-yl)piperidin-1-yl)methyl)isoindoline-1,3-dione]	A (0% ≤ substrate protein remaining % ≤ 80%)	B (80%< substrate protein remaining %≤ 100%)	A (0% ≤ substrate protein remaining % ≤ 80%)	A (0% ≤ substrate protein remaining % ≤ 80%)	A (0% ≤ substrate protein remaining % ≤ 80%)	A (0% ≤ substrate protein remaining % ≤ 80%)	1500 to 1900 nM
O=C1CCC(N2C(=O)c3ccc(CN4CCC(c5ncnc6sc7c(c56)CCC7)CC4)cc3C2=O)C(=O)N1 (stereo not drawn) [GT-06650, 5-((4-(6,7-dihydro-5H-cyclopenta[4,5]thieno[2,3-d]pyrimidin-4-yl)piperidin-1-yl)methyl)-2-(2,6-dioxopiperidin-3-yl)isoindoline-1,3-dione]	A (0% ≤ substrate protein remaining % ≤ 80%)	B (80%< substrate protein remaining %≤ 100%)	B (80%< substrate protein remaining %≤ 100%)	B (80%< substrate protein remaining %≤ 100%)	B (80%< substrate protein remaining %≤ 100%)	B (80%< substrate protein remaining %≤ 100%)	1500 to 1900 nM
Cc1nc(C2CCN(Cc3ccc4c(c3)C(=O)N(C3CCC(=O)NC3=O)C4=O)CC2)c2c3c(sc2n1)CCC3 (stereo not drawn) [GT-06651, 2-(2,6-dioxopiperidin-3-yl)-5-((4-(2-methyl-6,7-dihydro-5H-cyclopenta[4,5]thieno[2,3-d]pyrimidin-4-yl)piperidin-1-yl)methyl)isoindoline-1,3-dione]	A (0% ≤ substrate protein remaining % ≤ 80%)	B (80%< substrate protein remaining %≤ 100%)	A (0% ≤ substrate protein remaining % ≤ 80%)	B (80%< substrate protein remaining %≤ 100%)	B (80%< substrate protein remaining %≤ 100%)	B (80%< substrate protein remaining %≤ 100%)	1000 to 1500 nM
